From patent US7511173B2, “Creatine salt with enhanced nutritional and therapeutic efficacy and compositions containing same” (Iovate T & P Inc., priority 2004, dated 2009)

What was measured:
Format in all cases: physicochemical
pH of aqueous solution = details: c = 1% in water
hygroscopicity = test: hygroscopicity
[1] = stability in aqueous solution (titer, degradation into creatinine); details: solution of about 15 mg/ml (1.5%), after 10 days at room temperature

Row | pH (pH of aqueous solution) | hygroscopicity (hygroscopicity) | Compound | titer drop in aqueous solution [1]
1 | 6; c = 1% in water | non-hygroscopic | CN(CC(=O)O)C(=N)N.NCC(=O)O [creatine glycinate] | –
2 | – | – | citrate | about 50%
